Laboratory results: patent US20080176936A1, “Classes of Compounds that Interact with Integrins” (priority 2005, published 2008)

What follows are compounds tested against T1, αllbβ3 integrin (Homo sapiens, UniProt P05106+P08514) (assay: ELISA: inhibition of binding of αllbβ3 integrin membrane preparation to coated extracellular matrix protein). Conditions: substrate fibrinogen, human platelet membrane preparation.
T1 construct: Human platelet membrane preparations were used as a source of αllbβ3 integrin; from tissue; host or cells: human platelets (membrane preparation)
T1 sequence (P08514 32-887 limits assumed): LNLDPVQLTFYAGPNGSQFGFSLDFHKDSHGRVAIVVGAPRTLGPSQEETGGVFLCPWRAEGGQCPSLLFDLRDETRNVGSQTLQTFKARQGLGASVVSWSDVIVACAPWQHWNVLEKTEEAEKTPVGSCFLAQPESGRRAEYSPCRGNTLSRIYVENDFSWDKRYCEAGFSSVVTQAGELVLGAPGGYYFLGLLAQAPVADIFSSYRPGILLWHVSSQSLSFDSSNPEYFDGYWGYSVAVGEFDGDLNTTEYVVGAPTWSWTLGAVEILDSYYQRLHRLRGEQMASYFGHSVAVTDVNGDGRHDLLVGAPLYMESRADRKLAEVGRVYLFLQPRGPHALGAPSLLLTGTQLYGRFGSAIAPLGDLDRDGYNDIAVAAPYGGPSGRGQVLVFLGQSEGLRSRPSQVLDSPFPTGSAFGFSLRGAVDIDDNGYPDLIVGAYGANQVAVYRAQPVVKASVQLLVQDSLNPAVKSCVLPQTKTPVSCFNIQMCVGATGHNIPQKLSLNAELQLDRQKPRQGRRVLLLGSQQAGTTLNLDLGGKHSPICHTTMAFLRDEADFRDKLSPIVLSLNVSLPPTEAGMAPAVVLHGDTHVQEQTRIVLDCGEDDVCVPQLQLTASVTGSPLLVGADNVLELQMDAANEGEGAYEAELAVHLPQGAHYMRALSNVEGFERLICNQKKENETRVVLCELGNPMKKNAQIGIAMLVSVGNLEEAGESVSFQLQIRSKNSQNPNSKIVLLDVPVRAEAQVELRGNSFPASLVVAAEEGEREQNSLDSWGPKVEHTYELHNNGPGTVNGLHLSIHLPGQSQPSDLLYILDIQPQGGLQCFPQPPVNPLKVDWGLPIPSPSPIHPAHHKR
T1 sequence (P08514 891-1039 partner limits assumed): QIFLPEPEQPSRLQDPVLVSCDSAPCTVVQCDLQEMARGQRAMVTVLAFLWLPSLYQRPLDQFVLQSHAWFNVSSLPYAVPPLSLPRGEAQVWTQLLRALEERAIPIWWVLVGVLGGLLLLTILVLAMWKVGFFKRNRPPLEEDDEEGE
T1 sequence (P05106 27-788): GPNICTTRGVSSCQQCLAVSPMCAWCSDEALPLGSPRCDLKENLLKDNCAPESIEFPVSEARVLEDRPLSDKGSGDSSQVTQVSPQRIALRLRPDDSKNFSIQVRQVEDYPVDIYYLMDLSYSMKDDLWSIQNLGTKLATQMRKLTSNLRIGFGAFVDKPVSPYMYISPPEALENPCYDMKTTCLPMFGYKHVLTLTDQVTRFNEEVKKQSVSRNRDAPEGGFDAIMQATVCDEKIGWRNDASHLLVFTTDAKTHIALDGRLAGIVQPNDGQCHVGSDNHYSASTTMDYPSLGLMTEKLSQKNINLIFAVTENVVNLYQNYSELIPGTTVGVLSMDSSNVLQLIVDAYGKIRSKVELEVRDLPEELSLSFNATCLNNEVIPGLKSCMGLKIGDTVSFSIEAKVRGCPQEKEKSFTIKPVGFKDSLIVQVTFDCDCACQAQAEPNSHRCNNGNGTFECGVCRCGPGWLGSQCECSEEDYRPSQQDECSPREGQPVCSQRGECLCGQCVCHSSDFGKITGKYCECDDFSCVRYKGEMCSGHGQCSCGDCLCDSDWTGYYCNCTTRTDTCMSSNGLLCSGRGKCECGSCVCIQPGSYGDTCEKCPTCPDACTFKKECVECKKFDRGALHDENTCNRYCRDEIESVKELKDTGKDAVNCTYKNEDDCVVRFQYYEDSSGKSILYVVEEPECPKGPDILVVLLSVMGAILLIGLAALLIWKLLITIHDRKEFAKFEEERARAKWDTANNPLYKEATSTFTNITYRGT
Outline: (§1)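 Wells were coated with fibrinogen or vitronectin (10 µg/well), and integrin binding was measured by ELISA. αIIbβ3 came from human platelet membranes and αVβ3 from WM-115 cells, each preincubated with compound. Bound integrin was detected with a rabbit anti-β3 antibody, an HRP secondary and a colorimetric readout.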
`CCOC1C(O)C(COCc2cccc(N)c2)OC(OCc2ccccc2)C1NC(=O)CCC(=O)O` (single isomer, unassigned) [Compound 89] was tested, and the “INHIBITION @ 250 uM RECEPTOR allBb3 SUBSTRATE FIBRINOGEN” value was “− (0% to 35% inhibition at 250 micromolar)”.
For `COCC1OC(OCc2ccccc2)C(NC(=O)CCNC(=N)N)C(OCC(=O)O)C1O` (single isomer, unassigned) [Compound 90], the “INHIBITION @ 250 uM RECEPTOR allBb3 SUBSTRATE FIBRINOGEN” value was “− (0% to 35% inhibition at 250 micromolar)”.
For `COCC1OC(OCc2ccccc2)C(NC(=O)CCNC(=N)N)C(OCC(=O)O)C1O` (single isomer, unassigned) [Compound 91], the “INHIBITION @ 250 uM RECEPTOR allBb3 SUBSTRATE FIBRINOGEN” value was “+ (36% to 60% inhibition at 250 micromolar)”.
`CCOCC1OC(OCc2ccccc2)C(NC(=O)CCNC(=N)N)C(OCC(=O)O)C1O` (single isomer, unassigned) [Compound 92] was tested, and the “INHIBITION @ 250 uM RECEPTOR allBb3 SUBSTRATE FIBRINOGEN” value was “+ (36% to 60% inhibition at 250 micromolar)”.
With `CCOCC1OC(OCc2ccccc2)C(NC(=O)CCNC(=N)N)C(OCC(=O)O)C1O` (single isomer, unassigned) [Compound 93] the “INHIBITION @ 250 uM RECEPTOR allBb3 SUBSTRATE FIBRINOGEN” value was “− (0% to 35% inhibition at 250 micromolar)”.
With `N=C(N)NCCC(=O)NC1C(OCc2ccccc2)OC(CO)C(O)C1OCC(=O)O` (single isomer, unassigned) [Compound 94] the “INHIBITION @ 250 uM RECEPTOR allBb3 SUBSTRATE FIBRINOGEN” value was “− (0% to 35% inhibition at 250 micromolar)”.
`CC(=O)NC1C(OCc2ccccc2)OC(COCc2cccc(N)c2)C(O)C1OCC(=O)O` (single isomer, unassigned) [Compound 95] was tested, and the “INHIBITION @ 250 uM RECEPTOR allBb3 SUBSTRATE FIBRINOGEN” value was “− (0% to 35% inhibition at 250 micromolar)”.
In the case of `CC(=O)NC1C(OCc2ccccc2)OC(COCc2cccc(N)c2)C(O)C1OCC(=O)O` (single isomer, unassigned) [Compound 96], the “INHIBITION @ 250 uM RECEPTOR allBb3 SUBSTRATE FIBRINOGEN” value is reported as “− (0% to 35% inhibition at 250 micromolar)”.
With `COCC1OC(OCc2ccccc2)C(NC(=O)CCNC(=N)N)C(OCc2ccc(C(=O)O)cc2)C1O` (single isomer, unassigned) [Compound 97] the “INHIBITION @ 250 uM RECEPTOR allBb3 SUBSTRATE FIBRINOGEN” value was “− (0% to 35% inhibition at 250 micromolar)”.
In the case of `COCC1OC(OCc2ccccc2)C(NC(=O)CCNC(=N)N)C(OCc2ccc(C(=O)O)cc2)C1O` (single isomer, unassigned) [Compound 98], the “INHIBITION @ 250 uM RECEPTOR allBb3 SUBSTRATE FIBRINOGEN” value is reported as “− (0% to 35% inhibition at 250 micromolar)”.
In the case of `CCOCC1OC(OCc2ccccc2)C(NC(=O)c2cccc(N)c2)C(OCc2ccc(C(=O)O)cc2)C1O` (single isomer, unassigned) [Compound 99], the “INHIBITION @ 250 uM RECEPTOR allBb3 SUBSTRATE FIBRINOGEN” value is reported as “− (0% to 35% inhibition at 250 micromolar)”.
With `CCOCC1OC(OCc2ccccc2)C(NC(=O)c2cccc(N)c2)C(OCc2ccc(C(=O)O)cc2)C1O` (single isomer, unassigned) [Compound 100] the “INHIBITION @ 250 uM RECEPTOR allBb3 SUBSTRATE FIBRINOGEN” value was “− (0% to 35% inhibition at 250 micromolar)”.

Same assay, conditions: substrate vitronectin, human platelet membrane preparation
For `CCOC1C(O)C(COCc2cccc(N)c2)OC(OCc2ccccc2)C1NC(=O)CCC(=O)O` (single isomer, unassigned) [Compound 89], the “INHIBITION 250 uM RECEPTOR allBb3 SUBSTRATE VITRONECTIN” value was “+++ (81% to 100% inhibition at 250 micromolar)”.
For `COCC1OC(OCc2ccccc2)C(NC(=O)CCNC(=N)N)C(OCC(=O)O)C1O` (single isomer, unassigned) [Compound 90], the “INHIBITION 250 uM RECEPTOR allBb3 SUBSTRATE VITRONECTIN” value was “+++ (81% to 100% inhibition at 250 micromolar)”.
With `COCC1OC(OCc2ccccc2)C(NC(=O)CCNC(=N)N)C(OCC(=O)O)C1O` (single isomer, unassigned) [Compound 91] the “INHIBITION 250 uM RECEPTOR allBb3 SUBSTRATE VITRONECTIN” value was “+ (36% to 60% inhibition at 250 micromolar)”.
With `CCOCC1OC(OCc2ccccc2)C(NC(=O)CCNC(=N)N)C(OCC(=O)O)C1O` (single isomer, unassigned) [Compound 92] the “INHIBITION 250 uM RECEPTOR allBb3 SUBSTRATE VITRONECTIN” value was “+++ (81% to 100% inhibition at 250 micromolar)”.
For `CCOCC1OC(OCc2ccccc2)C(NC(=O)CCNC(=N)N)C(OCC(=O)O)C1O` (single isomer, unassigned) [Compound 93], the “INHIBITION 250 uM RECEPTOR allBb3 SUBSTRATE VITRONECTIN” value was “+++ (81% to 100% inhibition at 250 micromolar)”.
`N=C(N)NCCC(=O)NC1C(OCc2ccccc2)OC(CO)C(O)C1OCC(=O)O` (single isomer, unassigned) [Compound 94] was tested, and the “INHIBITION 250 uM RECEPTOR allBb3 SUBSTRATE VITRONECTIN” value was “+ (36% to 60% inhibition at 250 micromolar)”.
For `CC(=O)NC1C(OCc2ccccc2)OC(COCc2cccc(N)c2)C(O)C1OCC(=O)O` (single isomer, unassigned) [Compound 95], the “INHIBITION 250 uM RECEPTOR allBb3 SUBSTRATE VITRONECTIN” value was “++ (61% to 80% inhibition at 250 micromolar)”.
For `CC(=O)NC1C(OCc2ccccc2)OC(COCc2cccc(N)c2)C(O)C1OCC(=O)O` (single isomer, unassigned) [Compound 96], the “INHIBITION 250 uM RECEPTOR allBb3 SUBSTRATE VITRONECTIN” value was “+ (36% to 60% inhibition at 250 micromolar)”.
With `COCC1OC(OCc2ccccc2)C(NC(=O)CCNC(=N)N)C(OCc2ccc(C(=O)O)cc2)C1O` (single isomer, unassigned) [Compound 97] the “INHIBITION 250 uM RECEPTOR allBb3 SUBSTRATE VITRONECTIN” value was “− (0% to 35% inhibition at 250 micromolar)”.
With `COCC1OC(OCc2ccccc2)C(NC(=O)CCNC(=N)N)C(OCc2ccc(C(=O)O)cc2)C1O` (single isomer, unassigned) [Compound 98] the “INHIBITION 250 uM RECEPTOR allBb3 SUBSTRATE VITRONECTIN” value was “+++ (81% to 100% inhibition at 250 micromolar)”.
For `CCOCC1OC(OCc2ccccc2)C(NC(=O)c2cccc(N)c2)C(OCc2ccc(C(=O)O)cc2)C1O` (single isomer, unassigned) [Compound 99], the “INHIBITION 250 uM RECEPTOR allBb3 SUBSTRATE VITRONECTIN” value was “++ (61% to 80% inhibition at 250 micromolar)”.
`CCOCC1OC(OCc2ccccc2)C(NC(=O)c2cccc(N)c2)C(OCc2ccc(C(=O)O)cc2)C1O` (single isomer, unassigned) [Compound 100] was tested, and the “INHIBITION 250 uM RECEPTOR allBb3 SUBSTRATE VITRONECTIN” value was “+++ (81% to 100% inhibition at 250 micromolar)”.

What follows are compounds tested against T2, αVβ3 integrin (Homo sapiens, UniProt P05106+P06756) (assay: ELISA: inhibition of binding of αVβ3 integrin (source WM-115 cell line) to coated extracellular matrix protein). Conditions: WM-115 cell line as integrin source.
T2 construct: the cell line WM-115 was used as a source of αVβ3 integrin; endogenous in cells; host or cells: WM-115 cell line
T2 sequence (P06756 31-889 limits assumed): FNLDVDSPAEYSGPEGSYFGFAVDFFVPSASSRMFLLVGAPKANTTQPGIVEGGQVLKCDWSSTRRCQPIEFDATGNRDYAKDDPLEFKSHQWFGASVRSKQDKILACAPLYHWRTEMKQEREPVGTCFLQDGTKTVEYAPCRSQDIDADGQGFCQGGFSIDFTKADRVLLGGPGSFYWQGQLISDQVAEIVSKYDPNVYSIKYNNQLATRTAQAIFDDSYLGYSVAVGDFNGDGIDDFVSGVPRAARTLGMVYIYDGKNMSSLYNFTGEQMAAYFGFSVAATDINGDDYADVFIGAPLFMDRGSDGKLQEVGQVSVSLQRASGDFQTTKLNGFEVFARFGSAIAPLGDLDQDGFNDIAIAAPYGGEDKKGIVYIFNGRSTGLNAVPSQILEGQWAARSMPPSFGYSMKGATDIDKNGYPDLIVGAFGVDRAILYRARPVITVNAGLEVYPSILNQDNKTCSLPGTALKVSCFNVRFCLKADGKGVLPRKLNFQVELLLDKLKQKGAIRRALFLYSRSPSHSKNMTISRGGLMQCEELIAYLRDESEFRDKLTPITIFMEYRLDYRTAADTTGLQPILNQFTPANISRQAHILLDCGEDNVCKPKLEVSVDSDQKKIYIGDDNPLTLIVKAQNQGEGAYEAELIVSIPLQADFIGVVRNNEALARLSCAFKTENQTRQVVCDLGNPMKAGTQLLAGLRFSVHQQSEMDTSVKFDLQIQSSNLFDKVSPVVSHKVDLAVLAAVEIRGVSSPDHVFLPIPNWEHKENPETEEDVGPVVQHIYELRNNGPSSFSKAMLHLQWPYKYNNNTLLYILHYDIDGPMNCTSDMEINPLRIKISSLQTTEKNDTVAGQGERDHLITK
T2 sequence (P06756 891-1048 partner limits assumed): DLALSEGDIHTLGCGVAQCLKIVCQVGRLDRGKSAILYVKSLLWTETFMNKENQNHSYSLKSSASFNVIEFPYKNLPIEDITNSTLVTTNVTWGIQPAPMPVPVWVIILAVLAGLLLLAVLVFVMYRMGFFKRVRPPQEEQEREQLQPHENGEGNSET
T2 sequence (P05106 27-788): as the sequence (P05106 27-788) above
Outline: as §1
For `CCOC1C(O)C(COCc2cccc(N)c2)OC(OCc2ccccc2)C1NC(=O)CCC(=O)O` (single isomer, unassigned) [Compound 89], the “INHIBITION 250 uM RECEPTOR aVb3 SUBSTRATE FIBRINOGEN” value was “+ (36% to 60% inhibition at 250 micromolar)”.
In the case of `COCC1OC(OCc2ccccc2)C(NC(=O)CCNC(=N)N)C(OCC(=O)O)C1O` (single isomer, unassigned) [Compound 90], the “INHIBITION 250 uM RECEPTOR aVb3 SUBSTRATE FIBRINOGEN” value is reported as “− (0% to 35% inhibition at 250 micromolar)”.
For `COCC1OC(OCc2ccccc2)C(NC(=O)CCNC(=N)N)C(OCC(=O)O)C1O` (single isomer, unassigned) [Compound 91], the “INHIBITION 250 uM RECEPTOR aVb3 SUBSTRATE FIBRINOGEN” value was “− (0% to 35% inhibition at 250 micromolar)”.
With `CCOCC1OC(OCc2ccccc2)C(NC(=O)CCNC(=N)N)C(OCC(=O)O)C1O` (single isomer, unassigned) [Compound 92] the “INHIBITION 250 uM RECEPTOR aVb3 SUBSTRATE FIBRINOGEN” value was “++ (61% to 80% inhibition at 250 micromolar)”.
With `CCOCC1OC(OCc2ccccc2)C(NC(=O)CCNC(=N)N)C(OCC(=O)O)C1O` (single isomer, unassigned) [Compound 93] the “INHIBITION 250 uM RECEPTOR aVb3 SUBSTRATE FIBRINOGEN” value was “+++ (81% to 100% inhibition at 250 micromolar)”.
For `N=C(N)NCCC(=O)NC1C(OCc2ccccc2)OC(CO)C(O)C1OCC(=O)O` (single isomer, unassigned) [Compound 94], the “INHIBITION 250 uM RECEPTOR aVb3 SUBSTRATE FIBRINOGEN” value was “− (0% to 35% inhibition at 250 micromolar)”.
With `CC(=O)NC1C(OCc2ccccc2)OC(COCc2cccc(N)c2)C(O)C1OCC(=O)O` (single isomer, unassigned) [Compound 95] the “INHIBITION 250 uM RECEPTOR aVb3 SUBSTRATE FIBRINOGEN” value was “− (0% to 35% inhibition at 250 micromolar)”.
In the case of `CC(=O)NC1C(OCc2ccccc2)OC(COCc2cccc(N)c2)C(O)C1OCC(=O)O` (single isomer, unassigned) [Compound 96], the “INHIBITION 250 uM RECEPTOR aVb3 SUBSTRATE FIBRINOGEN” value is reported as “− (0% to 35% inhibition at 250 micromolar)”.
For `COCC1OC(OCc2ccccc2)C(NC(=O)CCNC(=N)N)C(OCc2ccc(C(=O)O)cc2)C1O` (single isomer, unassigned) [Compound 97], the “INHIBITION 250 uM RECEPTOR aVb3 SUBSTRATE FIBRINOGEN” value was “− (0% to 35% inhibition at 250 micromolar)”.
For `COCC1OC(OCc2ccccc2)C(NC(=O)CCNC(=N)N)C(OCc2ccc(C(=O)O)cc2)C1O` (single isomer, unassigned) [Compound 98], the “INHIBITION 250 uM RECEPTOR aVb3 SUBSTRATE FIBRINOGEN” value was “− (0% to 35% inhibition at 250 micromolar)”.
For `CCOCC1OC(OCc2ccccc2)C(NC(=O)c2cccc(N)c2)C(OCc2ccc(C(=O)O)cc2)C1O` (single isomer, unassigned) [Compound 99], the “INHIBITION 250 uM RECEPTOR aVb3 SUBSTRATE FIBRINOGEN” value was “− (0% to 35% inhibition at 250 micromolar)”.
`CCOCC1OC(OCc2ccccc2)C(NC(=O)c2cccc(N)c2)C(OCc2ccc(C(=O)O)cc2)C1O` (single isomer, unassigned) [Compound 100] was tested, and the “INHIBITION 250 uM RECEPTOR aVb3 SUBSTRATE FIBRINOGEN” value was “− (0% to 35% inhibition at 250 micromolar)”.
